Patent publication US20190233884A1 (University of Southern California, priority 2016, published 2019)

Tested on: patients with refractory metastatic colorectal cancer (mCRC)
Experiment: PFS, OS and disease control in the testing (validation) cohort of refractory mCRC patients receiving TAS-102 (n=129, Italy), by baseline characteristics, SNP genotype and toxicity
Format: in vivo, human
Conditions: for HR OS (95% CI) / HR PFS (95% CI): ATM rs609429 Any G vs C/C (Ref.)
Experimental: All patients underwent the treatment in salvage-line setting. […]
(§1) Genomic DNA was extracted from peripheral whole blood in patients of all cohorts using the QIAmp Kit (Qiagen, Valencia, Calif., USA) according to the manufacturer's protocol (www.qiagen.com). The candidate SNPs were genotyped using PCR-based direct DNA sequence analysis by ABI 3100A Capillary Genetic Analyzer and Sequencing Scanner v1.0 (Applied Biosystems). Amplification of extracted DNA was carried out using both forward and reverse primers for each gene polymorphism as shown in Table 1. […] The investigators analyzing SNPs were blinded to the clinical data of the study patients.
The primary endpoint in this study was progression-free survival (PFS), and the secondary endpoints were overall survival (OS) and disease control rate (DCR). PFS was calculated from the date of starting treatment to the first observation of disease progression or death from any cause. If a patient had no disease progression or death, PFS was censored at the date of last follow up. OS was calculated from the date of starting treatment until the date of death from any cause or the date of the last follow-up, at which point OS was censored. The disease control rate (DCR) was defined as the proportion of patients who achieved a stable disease (SD) or […] according to RECISTv1.1. Chi-square test was used to examine the difference in baseline patient characteristics among the three cohorts. Allelic distribution of all SNPs by ethnicity for deviation from Hardy-Weinberg equilibrium and the allelic frequencies of SNPs were tested using the Chi-square tests with one degree of freedom. The associations between candidate SNPs and disease control, and toxicities were examined using contingency tables and Fisher's exact test. The associations of SNPs with PFS and OS were analysed using Kaplan-Meier curves and the log-rank test. Because the true mode of inheritance of candidate SNPs was not established yet, a codominant or dominant genetic model if appropriate was considered.
All patients underwent the treatment in salvage-line setting. […] In all patients, adverse events were graded according to the Common Terminology Criteria for Adverse Events, version 4.0. […]
as §1, with “tested” for “genotyped”, “Biosystems).” for “Biosystems). Amplification of extracted DNA was carried out using both forward and reverse primers for each gene polymorphism as shown in Table 1.”, “data.” for “data of the study patients.”
The primary endpoint in this study was progression-free survival (PFS), and the secondary endpoints were overall survival (OS) and disease control rate (DCR).

[1] = testing cohort, hENT1 rs750370 A/A
[2] = testing cohort, hENT1 rs750370 A/G
[3] = testing cohort, hENT1 rs750370 A/G vs A/A
[4] = testing cohort, hENT1 rs750370 Any G
[5] = testing cohort, hENT1 rs750370 Any G vs A/A
[6] = testing cohort, hENT1 rs750370 G/G
[7] = testing cohort, hENT1 rs750370 G/G vs A/A
[8] = testing cohort, hENT1 rs760370, multivariable adjusted for age group, liver metastasis, ECOG, previous anti-EGFR
[9] = testing cohort, hENT1 rs760370 A/A
[10] = testing cohort, hENT1 rs760370 any G allele
[11] = testing cohort, hENT1 rs760370 any G vs A/A, univariate
[12] = testing cohort, hENT1 rs9394992 Any T
[13] = testing cohort, hENT1 rs9394992 Any T vs C/C
[14] = testing cohort, hENT1 rs9394992 C/C
[15] = testing cohort, hENT1 rs9394992 C/T
[16] = testing cohort, hENT1 rs9394992 C/T vs C/C
[17] = testing cohort, hENT1 rs9394992 T/T
[18] = testing cohort, hENT1 rs9394992 T/T vs C/C
[19] = testing cohort, hENT1370_OCT019 Excellent
[20] = testing cohort, hENT1370_OCT019 Fair
[21] = testing cohort, hENT1370_OCT019 Fair vs Poor
[22] = testing cohort, hENT1370_OCT019 Good
[23] = testing cohort, hENT1370_OCT019 Good and Excellent combined
[24] = testing cohort, hENT1370_OCT019 Good and Excellent combined vs Poor
[25] = testing cohort, hENT1370_OCT019 Poor
[26] = testing/validation cohort, grade 3≤ neutropenia
[27] = testing/validation cohort, grade 3≤ neutropenia vs less than grade 3
[28] = testing/validation cohort, neutropenia less than grade 3
[29] = validation cohort, ATM rs609429 Any G
[30] = validation cohort, multivariable
[31] = validation cohort, ATM rs609429 C/C

Trifluridine/tipiracil [TAS-102]
Disease Control Rate SD [1]: 9 (20%)
Overall Survival Median, months (95% CI) [1]: 3.9 (3.3, 5.5) months
Progression-free Survival Median, months (95% CI) [1]: 1.9 (1.7, 2.0) months
Disease Control Rate PD [2]: 42 (66%)
Disease Control Rate SD [2]: 22 (34%)
Progression-free Survival Median, months (95% CI) [2]: 2.1 (1.9, 2.5) months
Overall Survival HR (95% CI) multivariate [3]: 0.50 (0.28, 0.89)
Overall Survival HR (95% CI) univariate [3]: 0.48 (0.27, 0.85)
Progression-free Survival HR (95% CI) multivariate [3]: 0.58 (0.37, 0.89)
Progression-free Survival HR (95% CI) univariate [3]: 0.59 (0.38, 0.90)
Disease Control Rate PD [4]: 55 (66%)
Disease Control Rate SD [4]: 28 (34%)
Overall Survival Median, months (95% CI) [4]: 9.0 (5.1, 9.0+) months
Progression-free Survival Median, months (95% CI) [4]: 2.1 (1.9, 2.4) months
Overall Survival HR (95% CI) multivariate [5]: 0.54 (0.31, 0.93)
Overall Survival HR (95% CI) univariate [5]: 0.50 (0.29, 0.86)
Progression-free Survival HR (95% CI) multivariate [5]: 0.65 (0.43, 0.98)
Progression-free Survival HR (95% CI) univariate [5]: 0.64 (0.43, 0.95)
Disease Control Rate PD [6]: 13 (68%)
Disease Control Rate SD [6]: 6 (32%)
Overall Survival Median, months (95% CI) [6]: 9.0 (2.9, 9.0+) months
Progression-free Survival Median, months (95% CI) [6]: 2.0 (1.6, 2.5) months
Overall Survival HR (95% CI) multivariate [7]: 0.78 (0.31, 1.99)
Overall Survival HR (95% CI) univariate [7]: 0.58 (0.24, 1.41)
Progression-free Survival HR (95% CI) multivariate [7]: 1.00 (0.55, 1.80)
Progression-free Survival HR (95% CI) univariate [7]: 0.86 (0.48, 1.55)
HR for OS [8]: 0.54
HR for PFS [8]: 0.65
OS [9]: 3.9 months
PFS [9]: 1.9 months
OS [10]: 9.0 months
PFS [10]: 2.1 months
HR for OS [11]: 0.50
HR for PFS [11]: 0.64
Disease Control Rate PD [12]: 50 (71%)
Disease Control Rate SD [12]: 20 (29%)
Overall Survival Median, months (95% CI) [12]: 5.2 (3.7, 9.0+) months
Progression-free Survival Median, months (95% CI) [12]: 2.0 (1.9, 2.4) months
Overall Survival HR (95% CI) multivariate [13]: 1.19 (0.69, 2.07)
Overall Survival HR (95% CI) univariate [13]: 1.31 (0.76, 2.27)
Progression-free Survival HR (95% CI) multivariate [13]: 0.81 (0.54, 1.19)
Progression-free Survival HR (95% CI) univariate [13]: 0.92 (0.62, 1.35)
Disease Control Rate PD [14]: 41 (71%)
Disease Control Rate SD [14]: 17 (29%)
Overall Survival Median, months (95% CI) [14]: 5.8 (4.7, 8.8+) months
Progression-free Survival Median, months (95% CI) [14]: 2.0 (1.9, 2.1) months
Disease Control Rate PD [15]: 41 (71%)
Disease Control Rate SD [15]: 17 (29%)
Overall Survival Median, months (95% CI) [15]: 4.4 (3.6, 9.0+) months
Progression-free Survival Median, months (95% CI) [15]: 2.0 (1.8, 2.3) months
Overall Survival HR (95% CI) multivariate [16]: 1.23 (0.69, 2.18)
Overall Survival HR (95% CI) univariate [16]: 1.38 (0.78, 2.43)
Progression-free Survival HR (95% CI) multivariate [16]: 0.81 (0.54, 1.22)
Progression-free Survival HR (95% CI) univariate [16]: 0.92 (0.61, 1.38)
Disease Control Rate PD [17]: 9 (75%)
Disease Control Rate SD [17]: 3 (25%)
Progression-free Survival Median, months (95% CI) [17]: 2.5 (0.4, 3.9) months
Overall Survival HR (95% CI) multivariate [18]: 1.02 (0.38, 2.71)
Overall Survival HR (95% CI) univariate [18]: 1.06 (0.40, 2.79)
Progression-free Survival HR (95% CI) multivariate [18]: 0.79 (0.39, 1.58)
Progression-free Survival HR (95% CI) univariate [18]: 0.90 (0.45, 1.78)
Disease Control Rate PD [19]: 38 (64%)
Disease Control Rate SD [19]: 21 (36%)
Disease Control Rate PD [20]: 25 (81%)
Disease Control Rate SD [20]: 6 (19%)
Overall Survival Median, months (95% CI) [20]: 4.0 (3.1, 8.8) months
Progression-free Survival Median, months (95% CI) [20]: 1.9 (1.6, 2.0) months
Overall Survival HR (95% CI) multivariate [21]: 0.58 (0.25, 1.37)
Overall Survival HR (95% CI) univariate [21]: 0.77 (0.34, 1.75)
Progression-free Survival HR (95% CI) multivariate [21]: 1.13 (0.57, 2.24)
Progression-free Survival HR (95% CI) univariate [21]: 1.24 (0.64, 2.40)
Disease Control Rate PD [22]: 17 (71%)
Disease Control Rate SD [22]: 7 (29%)
Overall Survival Median, months (95% CI) [23]: 9.0 (5.1, 9.0) months
Progression-free Survival Median, months (95% CI) [23]: 2.1 (1.9, 2.4) months
Overall Survival HR (95% CI) multivariate [24]: 0.37 (0.17, 0.80)
Overall Survival HR (95% CI) univariate [24]: 0.42 (0.20, 0.90)
Progression-free Survival HR (95% CI) multivariate [24]: 0.71 (0.38, 1.30)
Progression-free Survival HR (95% CI) univariate [24]: 0.73 (0.40, 1.34)
Disease Control Rate PD [25]: 11 (79%)
Disease Control Rate SD [25]: 3 (21%)
Overall Survival Median, months (95% CI) [25]: 3.6 (2.3, 8.5) months
Progression-free Survival Median, months (95% CI) [25]: 2.0 (1.7, 2.4) months
Progression-free Survival Median, months (95% CI) (testing cohort, per OCT2 rs316000 genotype (row), OCT2 rs316000 A/A genotype): 2.0 (1.9, 2.1) months
Progression-free Survival Median, months (95% CI) (testing cohort, per OCT2 rs316000 genotype (row), OCT2 rs316000 A/G genotype): 1.9 (1.7, 2.4) months
Progression-free Survival Median, months (95% CI) (testing cohort, per OCT2 rs316000 genotype (row), OCT2 rs316000 Any G genotype): 1.9 (1.8, 2.6) months
Progression-free Survival Median, months (95% CI) (testing cohort, per OCT2 rs316000 genotype (row), OCT2 rs316000 G/G genotype): 3.7 (1.7, 6.8+) months
OS [26]: 8.8 months
PFS [26]: 2.3 months
HR for OS [27]: 0.21
HR for PFS [27]: 0.50
OS [28]: 3.7 months
PFS [28]: 1.9 months
Disease Control CR/PR/SD, patients n (%) [29]: 26 (33%)
Median PFS (95% CI) [29]: 2.0 (1.9, 2.3) months
PD, patients n (%) [29]: 52 (67%)
HR OS (95% CI) [30]: 0.80 (0.45, 1.41)
HR PFS (95% CI) [30]: 0.85 (0.56, 1.29)
HR OS (95% CI) (validation cohort, univariate): 0.73 (0.43, 1.25)
HR PFS (95% CI) (validation cohort, univariate): 0.78 (0.52, 1.16)
Disease Control CR/PR/SD, patients n (%) [31]: 11 (22%)
Median OS (95% CI) [31]: 4.4 (3.7, 9.0+) months
Median PFS (95% CI) [31]: 1.9 (1.8, 2.3) months
OS [31]: 4.4 months
PD, patients n (%) [31]: 39 (78%)
PFS [31]: 1.9 months
